From US20100130459A1, “NEUROPROTECTIVE 7-BETA-HYDROXYSTEROIDS” (Hunter-Fleming Limited, priority 2000, published 2010) come the findings set out here.

For data set [1], the system named is hippocampal CA1 pyramidal cells. In words: Global cerebral ischemia in rats (4 vessel occlusion), surviving CA1 neurons by Nissl staining. Type of data set: in vivo, male Wistar rats. On the procedure: Cerebral ischemia was induced by four-vessel-occlusion (4VO) in male Wistar rats (250-280 g). Both vertebral arteries were occluded by electrocauterization in pentobarbital anesthesia (60 mg/kg i.p.). The animals were allowed to recover for 24 hours with free access to water but not food. The next day the carotid arteries were exposed under 2% halothane in 30% oxygen/70% nitrous oxide anesthesia and were occluded for 10 minutes using microvascular claps. Subsequently, both clamps were removed and both arteries were inspected for immediate reperfusion. During the operation and the following 3 hours normothermia of the animals (37.5±0.5° C.) was maintained by using a thermostatically controlled heating blanket connected to a rectal thermometer. For control, in sham-operated animals both vertebral arteries were cauterized in pentobarbital anesthesia and both common carotid arteries were exposed but not clamped under 2% halothane in 30% oxygen/70% nitrous oxide anesthesia the following day. The wound was treated with lidocaine gel and then sutured. The animals were kept under a heating lamp at 30° C. environmental temperature until they regained consciousness.
Seven groups of animals were investigated: • 1. (n=8) steroid compound, 7β-OH EPIA (0.1 mg/kg, i. v. via tail vein, three injections: 15 minutes prior to the induction of ischemia, during ischemia and 5 minutes after reperfusion); • 2. (n=8) steroid compound, 7β-OH EPIA (0.3 mg/kg, i. v. three injections as described in 1.); • 3. (n=8) steroid compound, 7β-OH EPIA (1 mg/kg, i. v., three injections as described in 1.); • 4. (n=8) NBQX (disodium salt, because more water soluble) as reference substance and positive control (TOCRIS, Germany, 30 mg/kg, i. p., three injections as described in 1.); • 5. (n=8) received vehicle (0.9% NaCl, containing 100 μl Ethanol) three injections as described in 1.); • 6. (n=8) ischemia alone; • 7. (n=8) sham operated controls.
The substances were dissolved in 100 μl Ethanol and finally diluted with 0.9% NaCl.
After a survival time of 7 days after ischemia, all animals were perfusion fixed transcardially with 4% paraformaldehyde. The brains were then removed carefully and postfixed in the same fixative for 2 hours. After cryoprotection in 30% sucrose, the brains were rapidly frozen in isopentane and stored at −80° C. Twenty-micrometer cryostat sections comprising the hippocampal formation were Niss1 stained with toluidine blue or NeuroTrace fluorescence.
The severity of neuronal damage in the hippocampal CA1 region after ischemia was evaluated by the number of surviving neurons using Niss1 staining. The mean number of morphologically intact neurons per 400 μm length was calculated in CA1 region for each group. Cell counting was performed in 3-5 serial sections per animal and 6 times 400 μm CA1 area per section using a light microscope equipped with a 20× objective. The data were statistically analyzed by paired Student's t-test. Data were presented as mean±SEM.

The test system of data set [2] is Organotypic hippocampal slice cultures (CA1 cell layer). In words: Hypoxic neuronal damage in organotypic hippocampal slice cultures (PI fluorescence in CA1). It is filed as cell-based, Wistar rat. On the procedure:
Organotypic hippocampal slice cultures were prepared using the basic method of Pringle et al (1996, 1997) modified as follows:
Wistar rat pups (8-11 days old) were decapitated and the hippocampus rapidly dissected into ice-cold Gey's balanced salt solution supplemented with 4.5 mg/ml glucose. Slices were separated and plated onto Millicell CM culture inserts (4 per well) and maintained at 37′C./5% CO2 for 14 days. Maintenance medium consisted of 25% heat-inactivated horse serum, 25% Hank's balanced salt solution (HBSS) and 50% minimum essential medium with added Earle's salts (MEM) supplemented with 1 mM glutamine and 4.5 mg/ml glucose. Medium was changed every 3-4 days.
Experimental hypoxia was performed as described previously (Pringle e al., 1996; 1997). Briefly, cultures were transferred to serum free medium (SFM—75% MEM, 25% HBSS supplemented with 1 mM glutamine and 4.5 mg/ml glucose) containing 5 μg/ml of the fluorescent exclusion dye propidium iodide (PI). Cultures were allowed to equilibrate in SFM for 60 minutes prior to imaging. PI fluorescence was detected using a Leica inverted microscope fitted with a rhodamine filter set. Any cultures in which PI fluorescence was detected at this stage were excluded from further study. Hypoxia was induced by transferring cultures to SEM (+PI) which had been saturated with 95% N2/5% CO2. Culture plates (without lids) were then sealed into an airtight chamber in which the atmosphere was saturated with 95% N2/5% CO2 by continuously blowing through gas at 10 L/min for ten minutes before being sealed and placed in the incubator for 170 mins (total time of hypoxia was therefore 180 mins). At the end of the hypoxic period cultures were returned to normoxic SFM containing PI and placed back in the incubator for 24 hours.
Neuronal damage was assessed as described previously (Pringle et al., 1996; 1997) using either NIH Image 1.60 running on an Apple IIsi computer or OpenLab 2.1 (Improvision) running on a Macintosh G4/400. Images were captured using a monochrome camera and saved onto optical disk for offline analysis. Light transmission images were captured prior to the addition of drugs, and PI fluorescence images recorded at the end of the 24-hour post-hypoxia recovery period. The area of the CA1 cell layer was determined from the transmission image. The area of PI fluorescence in CA1 was measured using the density slice function within NIH Image or OpenLab, and neuronal damage expressed as the percentage of the CA1 in which PI fluorescence was detected above background.
Steroid compounds were prepared by making an initial 1 mg/ml solution in ethanol and further diluting down in SFM. Compounds were added to the cultures for 45 minutes prior to hypoxia, during the hypoxic episode and during the post-hypoxic recovery period. Control experiments consisted of cultures treated with vehicle alone.

[3] abbreviates: 30 mg/kg, three injections, 10 min global ischemia, 7 days survival.
Where [4] appears, read: Experiment 1, 100 nM pre-, during and post-hypoxia.
The mark [5] stands for this setting: Experiment 1, 100 nM present pre-, during and post-hypoxia, control hypoxia 25.5 ± 6.4.

Molecules are shown by their SMILES.

In the case of `NS(=O)(=O)c1cccc2c1c([N+](=O)[O-])cc1nc(O)c(O)nc12` [NBQX, 2,3-dihydroxy-6-nitro-7-sulfamoyl-benzo(F)quinoxaline, reference compound], the “Neuroprotection in CA1 pyramidal cells compared to the ischemia group (in words, t-test)” value in data set [1] (30 mg/kg, three injections) is “significant (p=0.03) neuroprotection”. In data set [1] (setting [3]), the “Neuroprotection compared to the ischemia alone” value was 47.5% and the “Protective effect compared to the sham operated animals” value was found to be 68.5%.
Turning to `C[C@]12CC[C@H](O)CC1=C[C@H](O)[C@@H]1[C@@H]2CC[C@]2(C)C(=O)CC[C@@H]12` [Example 7βOH-DHEA, 7β-hydroxy-DHEA], the “Reduction in neuronal damage (in words)” value in data set [2] (Experiment 3, 100 nM pre-, during and post-hypoxia) is on record as “large, highly significant, reduction in neuronal damage”. For the same compound, the “% Damage in CA1” value in data set [2] (Experiment 3, 100 nM pre-, during and post-hypoxia, control hypoxia 29.0 ± 6.2) turned out to be 4.2 ± 1.9 %.
Regarding `C[C@]12CC[C@H](O)C[C@@H]1C[C@H](O)[C@@H]1[C@@H]2CC[C@]2(C)C(=O)CC[C@@H]12` [Example 7βOH-EPIA, 7β-hydroxyepiandrosterone], in data set [1] (0.1 mg/kg (p=0.01) and 0.3 mg/kg (p=0.0008) i.v.), the “Neuroprotective effect (in words, t-test)” value was “highly significant neuroprotective effect”. In addition, the “Neuroprotective effect on CA1 pyramidal cells compared to the sham operated group (FIG. 1C)” value in data set [1] (0.1 mg/kg i.v., three injections, 10 min global ischemia, 7 days survival) is reported as 74.8%; in data set [1] (0.3 mg/kg i.v., three injections, 10 min global ischemia, 7 days survival), 83.9%. For the same compound, the “Neuroprotection of CA1 pyramidal cells (in words)” value in data set [1] (1.0 mg/kg i.v., three injections) is “only a tendency to neuroprotection, but the effect was not significant”. Moreover, the “Behavioral abnormalities of the animals” value in data set [1] (injected i.v. prior, during and after ischemia, all experiments) was “never observed any behavioral abnormalities”. The “Reduction of hypoxic damage in CA1 (in words)” value in data set [2] (setting [4]) is recorded as “significantly reduced”. Moreover, the “% Damage in CA1” value in data set [2] (setting [5]) is 9.0 ± 4.7 %; in data set [2] (Experiment 2, 1 nM, control hypoxia 31.9 ± 4.7), 20.6 ± 7.2%; in data set [2] (Experiment 2, 10 nM, control hypoxia 31.9 ± 4.7), 11.9 ± 4.7 %; in data set [2] (Experiment 2, 100 nM, control hypoxia 31.9 ± 4.7) it was 14.3 ± 5.0 %. In addition, the “Neuroprotection against hypoxia (in words)” value in data set [2] (Experiment 2, 1 nM) is recorded as “activity was lost”; in data set [2] (Experiment 2, 10 nM and 100 nM), “significantly neuroprotective”.
Regarding `C[C@]12CC[C@H](O)C[C@@H]1C[C@@H](O)[C@@H]1[C@@H]2CC[C@]2(C)C(=O)CC[C@@H]12` [Example 7αOH-EPIA, 7α-Hydroxy-EPIA], the “Reduction of hypoxic damage in CA1 (in words)” value in data set [2] (setting [4]) was “significantly reduced”. Also, the “% Damage in CA1” value in data set [2] (setting [5]) turned out to be 4.0 ± 2.9 %.
